Patent US20060069132A1, “Azolecarboxamide herbicides” (priority 2004, published 2006)

Assays:
giant foxtail = assay: Test A pre-/postemergence herbicide test; assay type: in vivo, Setaria faberi
Method in brief: (§1)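 Sandy loam soil given preemergence directed spray; plants at 2 to 10 cm, one- to two-leaf stage, sprayed to runoff postemergence, compounds in non-phytotoxic solvent with surfactant. Injury rated visually versus untreated controls after about ten greenhouse days, 0 (no effect) to 100 (complete control); dash means not tested.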

redroot pigweed = assay: Test A pre-/postemergence herbicide test; assay type: in vivo, Amaranthus retroflexus
Method in brief: as §1

yellow nutsedge = assay: Test C pre-/postemergence herbicide test; assay type: in vivo, Cyperus esculentus; details: for Nutsedge, Yellow plant response rating: Preemergence, 500 g ai/ha
Method in brief: (§2)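 Preemergence: seeds planted and treated with compound in non-phytotoxic solvent with surfactant; postemergence: plants at 2 to 18 cm (1- to 4-leaf stage) sprayed likewise. Kept in greenhouse 12 to 14 days, then visually rated against controls, 0 (no effect) to 100 (complete control).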

rice = assay: Test B pre-/postemergence herbicide test; assay type: in vivo, Oryza sativa; details: preemergence
Method in brief: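 Response was scored visually 13 to 15 days after treatment against untreated greenhouse controls, 0 meaning no effect and 100 complete control. Formulations (solvent mixture plus surfactant) went onto soil after planting, onto foliage of 1- to 4-leaf plants, and onto 2-leaf plants in a flooded paddy set including rice and barnyardgrass.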

woolly cupgrass = assay: Test C pre-/postemergence herbicide test; assay type: in vivo, Eriochloa villosa; details: for Cupgrass, Woolly plant response rating: Preemergence, 500 g ai/ha
Method in brief: as §2

large crabgrass = assay: Test A pre-/postemergence herbicide test; assay type: in vivo, Digitaria sanguinalis
Method in brief: as §1

lambsquarters = assay: Test C pre-/postemergence herbicide test; assay type: in vivo, Chenopodium album; details: for Lambsquarters plant response rating: Preemergence, 500 g ai/ha
Method in brief: as §2

johnsongrass = assay: Test C pre-/postemergence herbicide test; assay type: in vivo, Sorghum halepense; details: for Johnsongrass plant response rating: Preemergence, 500 g ai/ha
Method in brief: as §2

[1] = Postemergence, 500 g ai/ha, 0 to 100 scale, 0 no effect, 100 complete control
[2] = Postemergence, 2000 g ai/ha, 0 to 100 scale, 0 no effect, 100 complete control
[3] = Preemergence, 2000 g ai/ha, visual rating, 0 to 100 scale (0 no effect, 100 complete control)
[4] = preemergence, 500 g ai/ha, visual injury, 0 to 100 scale (0 no effect, 100 complete control)
[5] = 62 g ai/ha, preemergence, scale 0 to 100
[6] = 125 g ai/ha, scale 0 (no effect) to 100 (complete control), visual, 12 to 14 days, preemergence
[7] = 250 g ai/ha, scale 0-100, preemergence
[8] = scale 0 to 100, 0 no effect, 100 complete control
[9] = 500 g ai/ha, visual rating 0-100, 0 no effect, 100 complete control
[10] = Preemergence, 500 g ai/ha, visual rating, 0 to 100 scale (0 no effect, 100 complete control)
[11] = Preemergence, 2000 g ai/ha, 0 to 100 scale, 0 no effect, 100 complete control
[12] = 31 g ai/ha, preemergence, scale 0 to 100
[13] = 250 g ai/ha, scale 0 to 100 (0 no effect, 100 complete control), visual, 12 to 14 days, preemergence
[14] = Postemergence, 250 g ai/ha, scale 0 to 100, 0 no effect, 100 complete control
[15] = postemergence, 125 g ai/ha, scale 0 to 100
[16] = postemergence, 62 g ai/ha, scale 0 to 100
[17] = 125 g ai/ha, 0 to 100 scale, 0 is no effect, 100 is complete control

C=CCNC(=O)c1cccc(NC(=O)c2sc(C(C)(C)C)nc2C)c1 [Compound 202]
Foxtail, Giant plant response rating (giant foxtail; [1]): 30
Plant response rating, Foxtail, Giant (giant foxtail; [2]): 50
Foxtail, Giant plant response rating (giant foxtail; [3]): 80
Foxtail, Giant plant response rating (giant foxtail; [4]): 55
Pigweed plant response rating (redroot pigweed; [1]): 50
Plant response rating, Pigweed (redroot pigweed; [2]): 90
Pigweed plant response rating (redroot pigweed; [3]): 100
Pigweed plant response rating (redroot pigweed; [4]): 100
Plant response rating, Nutsedge, Yellow (yellow nutsedge; [5]): 0
Plant response rating, Nutsedge, Yellow (yellow nutsedge; [6]): 0
Plant response rating, Nutsedge, Yellow (yellow nutsedge; [7]): 0
Nutsedge, Yellow plant response rating (yellow nutsedge; [8]): 0
Rice plant response rating (0 to 100 scale) (rice; 125 g ai/ha, 0 = no effect, 100 = complete control): 10
Plant response rating, Rice (rice; [9]): 30
Plant response rating, Cupgrass, Woolly (woolly cupgrass; [5]): 0
Plant response rating, Cupgrass, Woolly (woolly cupgrass; [6]): 10
Plant response rating, Cupgrass, Woolly (woolly cupgrass; [7]): 20
Cupgrass, Woolly plant response rating (woolly cupgrass; [8]): 60
Crabgrass, Large plant response rating (large crabgrass; [1]): 30
Plant response rating, Crabgrass, Large (large crabgrass; [2]): 65
Crabgrass, Large plant response rating (large crabgrass; [3]): 100
Crabgrass, Large plant response rating (large crabgrass; [4]): 85
Plant response rating, Lambsquarters (lambsquarters; [5]): 40
Plant response rating, Lambsquarters (lambsquarters; [6]): 90
Plant response rating, Lambsquarters (lambsquarters; [7]): 100
Lambsquarters plant response rating (lambsquarters; [8]): 100
Plant response rating, Johnsongrass (johnsongrass; [5]): 0
Plant response rating, Johnsongrass (johnsongrass; [6]): 40
Plant response rating, Johnsongrass (johnsongrass; [7]): 70
Johnsongrass plant response rating (johnsongrass; [8]): 75

CCn1nc(C(C)(C)C)cc1C(=O)Nc1ccc(F)c(C(=O)NCCF)c1 [Compound 60]
Plant response rating, Foxtail, Giant (giant foxtail; [1]): 30
Plant response rating, Foxtail, Giant (giant foxtail; [2]): 60
Foxtail, Giant plant response rating (giant foxtail; [10]): 55
Foxtail, Giant plant response rating (giant foxtail; [11]): 90
Plant response rating, Pigweed (redroot pigweed; [1]): 40
Plant response rating, Pigweed (redroot pigweed; [2]): 95
Pigweed plant response rating (redroot pigweed; [10]): 95
Pigweed plant response rating (redroot pigweed; [11]): 100
Plant response rating, Nutsedge, Yellow (yellow nutsedge; [12]): 0
Plant response rating (0 = no effect, 100 = complete control), Nutsedge, Yellow (yellow nutsedge; 62 g ai/ha, preemergence): 0
Plant response rating, Nutsedge, Yellow (yellow nutsedge; [6]): 0
Plant response rating, Nutsedge, Yellow (yellow nutsedge; [13]): 5
Plant response rating, Nutsedge, Yellow (yellow nutsedge; [14]): 0
Plant response rating, Nutsedge, Yellow (yellow nutsedge; [15]): 0
Plant response rating, Nutsedge, Yellow (yellow nutsedge; [16]): 0
Plant response rating, Rice (rice; [17]): 30
Plant response rating, Cupgrass, Woolly (woolly cupgrass; [12]): 0
Plant response rating (0 = no effect, 100 = complete control), Cupgrass, Woolly (woolly cupgrass; 62 g ai/ha, preemergence): 0
Plant response rating, Cupgrass, Woolly (woolly cupgrass; [6]): 10
Plant response rating, Cupgrass, Woolly (woolly cupgrass; [13]): 70
Plant response rating, Cupgrass, Woolly (woolly cupgrass; [14]): 5
Plant response rating, Cupgrass, Woolly (woolly cupgrass; [15]): 5
Plant response rating, Cupgrass, Woolly (woolly cupgrass; [16]): 0
Plant response rating, Crabgrass, Large (large crabgrass; [1]): 20
Plant response rating, Crabgrass, Large (large crabgrass; [2]): 55
Crabgrass, Large plant response rating (large crabgrass; [10]): 75
Crabgrass, Large plant response rating (large crabgrass; [11]): 95
Plant response rating, Lambsquarters (lambsquarters; [12]): 90
Plant response rating (0 = no effect, 100 = complete control), Lambsquarters (lambsquarters; 62 g ai/ha, preemergence): 100
Plant response rating, Lambsquarters (lambsquarters; [6]): 100
Plant response rating, Lambsquarters (lambsquarters; [13]): 100
Plant response rating, Lambsquarters (lambsquarters; [14]): 70
Plant response rating, Lambsquarters (lambsquarters; [15]): 30
Plant response rating, Lambsquarters (lambsquarters; [16]): 10
Plant response rating, Johnsongrass (johnsongrass; [12]): 5
Plant response rating (0 = no effect, 100 = complete control), Johnsongrass (johnsongrass; 62 g ai/ha, preemergence): 10
Plant response rating, Johnsongrass (johnsongrass; [6]): 50
Plant response rating, Johnsongrass (johnsongrass; [13]): 60
Plant response rating, Johnsongrass (johnsongrass; [14]): 0
Plant response rating, Johnsongrass (johnsongrass; [15]): 0
Plant response rating, Johnsongrass (johnsongrass; [16]): 0

CCN(CC)C(=O)c1cccc(NC(=O)c2cc(C(C)(C)C)nn2CC)n1 [Compound 145]
Foxtail, Giant plant response rating (giant foxtail; [1]): 40
Plant response rating, Foxtail, Giant (giant foxtail; [2]): 60
Foxtail, Giant plant response rating (giant foxtail; [10]): 85
Foxtail, Giant plant response rating (giant foxtail; [3]): 100
Pigweed plant response rating (redroot pigweed; [1]): 90
Plant response rating, Pigweed (redroot pigweed; [2]): 100
Pigweed plant response rating (redroot pigweed; [3]): 100
Pigweed plant response rating (redroot pigweed; [4]): 95
Plant response rating (0 = no effect, 100 = complete control), Nutsedge, Yellow (yellow nutsedge; 62 g ai/ha, preemergence): 0
Plant response rating, Nutsedge, Yellow (yellow nutsedge; [6]): 0
Nutsedge, Yellow plant response rating (yellow nutsedge; [8]): 0
Plant response rating, Rice (rice; [9]): 20
Plant response rating, Rice (rice; [17]): 0
Plant response rating (0 = no effect, 100 = complete control), Cupgrass, Woolly (woolly cupgrass; 62 g ai/ha, preemergence): 0
Plant response rating, Cupgrass, Woolly (woolly cupgrass; [6]): 0
Plant response rating, Cupgrass, Woolly (woolly cupgrass; [13]): 0
Cupgrass, Woolly plant response rating (woolly cupgrass; [8]): 40
Crabgrass, Large plant response rating (large crabgrass; [1]): 30
Plant response rating, Crabgrass, Large (large crabgrass; [2]): 85
Crabgrass, Large plant response rating (large crabgrass; [10]): 70
Crabgrass, Large plant response rating (large crabgrass; [3]): 90
Plant response rating (0 = no effect, 100 = complete control), Lambsquarters (lambsquarters; 62 g ai/ha, preemergence): 20
Plant response rating, Lambsquarters (lambsquarters; [6]): 60
Lambsquarters plant response rating (lambsquarters; [8]): 100
Plant response rating (0 = no effect, 100 = complete control), Johnsongrass (johnsongrass; 62 g ai/ha, preemergence): 50
Plant response rating, Johnsongrass (johnsongrass; [6]): 65
Johnsongrass plant response rating (johnsongrass; [8]): 90
